How the values were obtained:
[1] = biological target: Horse butyrylcholinesterase (EC 3.1.1.8) (Equus caballus, UniProt P81908); assay: Anticholinesterase assay; assay type: biochemical; conditions: Butyrylcholinesterase inhibition activity IC50 μM ± SEM, mean of three experiments with SEM; 15 min at 25 °C, pH 8.0
xanthine oxidase = conditions: ref Sheu and Chiang, 1997; cited from earlier work

Chain of Horse butyrylcholinesterase (EC 3.1.1.8) (P81908 whole entry): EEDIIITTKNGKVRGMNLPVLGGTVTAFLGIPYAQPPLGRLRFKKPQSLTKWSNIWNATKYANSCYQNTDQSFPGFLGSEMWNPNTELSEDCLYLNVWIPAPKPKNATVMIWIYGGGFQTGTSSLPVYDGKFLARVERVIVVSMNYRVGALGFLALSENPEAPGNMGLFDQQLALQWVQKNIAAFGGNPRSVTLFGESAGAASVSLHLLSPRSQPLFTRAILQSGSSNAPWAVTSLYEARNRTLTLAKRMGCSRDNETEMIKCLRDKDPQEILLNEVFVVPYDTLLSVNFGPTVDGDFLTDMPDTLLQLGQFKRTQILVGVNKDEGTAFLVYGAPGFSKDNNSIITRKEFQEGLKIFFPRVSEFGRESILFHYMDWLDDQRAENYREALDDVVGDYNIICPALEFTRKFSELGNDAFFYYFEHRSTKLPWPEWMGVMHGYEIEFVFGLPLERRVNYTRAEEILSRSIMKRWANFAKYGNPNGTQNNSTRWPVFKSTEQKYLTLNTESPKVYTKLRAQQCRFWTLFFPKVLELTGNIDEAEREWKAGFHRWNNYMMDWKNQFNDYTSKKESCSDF

Oc1ccc2c(O)c3ccccc3cc2c1O [Compound 1, anthracene-1,2,10-triol]
IC50 [1]: 89.3 ± 0.21 µM | xanthine oxidase inhibitory activity at concentration (xanthine oxidase): 68.35 µM
